This is an account of results in patent US12692278B2, “Synthesis methods and compositions of low intermediate and low dichelate intermediate contrast agents” (priority 2021, dated 2026).

The nature of data set [1]: Free Gd3+ baseline / in vial, xylenol orange. The class given is physicochemical. An excerpt:
Additionally or alternately, an improved version of the xylenol orange titration of free Gd3+ in the USP can be used as both an in-process check and a final product check. To obtain a limit of detection adequate for the product produced in the above claims, UV spectroscopy must be used in conjunction with the titration to measure the xylenol orange/free Gd reaction. Furthermore, an indirect measure of metastable intermediates is obtained when the titration reaction is allowed to proceed past the initial reaction of xylenol orange and free Gd. This is because xylenol orange will pull Gd from the metastable intermediates over time. […] Free Gadolinium was determined by using the spectrometric xylenol orange technique described in previous studies.

The nature of data set [2]: Free Gd3+ after exposure to bovine serum. Type of data set: physicochemical. On the procedure: To show these metastable intermediates readily evolve into free Gd3+, Gd-DOTA was placed in a solution of bovine serum and the amount of Gd3+ was measured.
Bovine blood was obtained at a local slaughterhouse, citrated, centrifuged and serum was obtained and frozen. In tests, serum was slowly heated to body temperature and 1% Gd-DOTA by weight was added to serum and placed on rocker for 30 minutes. Ten samples were tested for each test article.

The nature of data set [3]: Transmetallation with ZnCl solution. The class given is physicochemical. The note with it: free Gd; 10% by weight ZnCl solution; unit not given. An excerpt: 10% by weight ZnCl solution was used to support the serum results, arguing that Zn substitution of Gd in the chelate quantifies the stability of the Gd-DOTA in much the same way that metals in serum block Gd3+ recombination with the chelate, but with more precision, since the contents of bovine serum is variable among mammals.

Data set [4] is described as follows: Feasibility of cation exchange (sodium polystyrene sulfonate), free Gd3+ by xylenol orange. Conditions: before sodium polystyrene sulfonate treatment. The class given is physicochemical. On the procedure: Feasibility of cation exchange as a method of making Gd-DOTA with low metastable intermediates
Using sodium polystyrene sulfonate, rather than the polymer described above.
Ten samples were stored at room temperature with a stoichiometric amount of sodium polystyrene sulfonate.
Samples were tested using the improved spectrometric xylenol orange method.

A short description of data set [5]: Feasibility of excess DTPA, free Gd3+ by xylenol orange. The class given is physicochemical. Conditions: new 12 hour sample before DTPA. The protocol: The metastable intermediate concentration is determined by Example 3, and associated methods described in the present application. A Gd-DOTA synthesis containing metastable intermediates is heated to 95° C. in the presence of a stoichiometric amount of DTPA sufficient to consume all the metastable intermediates. The presence of metastable intermediates can be measured as a function of time. The reaction is continued until a desired metastable intermediate content is obtained. Depending on the amount of free DOTA thus liberated, the free DOTA can be reacted with a positively charged resin, as is known in the art. Alternatively, the free DOTA may serve as a buffer against free Gd3+ formation, as is permitted in some drug formulations. Ten samples were prepared by adding stoichiometric amounts of DTPA to counter the excess Gd3+ and stored at room temperature for 24 hours. Samples were tested using the improved spectrometric xylenol orange method.

Data set [6] in a line: pH controlled synthesis, free Gd versus synthesis time. Type of data set: physicochemical. On the procedure:
Here, Example 1A is modified by the addition of gadolinim oxide in its entirety at first and immediately after the introduction of the DOTA, and this procedure is used to produce batch A of Gd-DOTA. Batch B is produced using the following modified procedure.
• 1. Heat reactor to 95° C. • 2. Charge water with all of gadolinium oxide • 3. Stir (stir unless otherwise indicated, nominal rate 300 rpm) until the solution is clear • 4. Add sufficient DOTA to obtain a pH of 4 • 5. When pH is >5 charge sufficient DOTA to reach pH of 4 • 6. Stir until uniformly distributed in the water, and clear • 7. If pH<4, then go to step 9 • 8. Go to step 4 • 9. Divide remaining portion of DOTA into 5 parts • 10. Add 1 part of remaining DOTA • 11. Stir until uniformly distributed in the water, and clear • 12. If DOTA remains to be added go to step 10 • 13. Continue to cook for a total of 12 hours Results

The nature of data set [7]: Feasibility of acid precipitation, free Gd3+ by xylenol orange. The class given is physicochemical. Conditions: 12 hour sample, 1 hr 0.1 M HCl, buffer to pH 7.0, filtration. On the procedure: The feasibility of acid precipitation as a method for making Gd-DOTA with low metastable intermediate forms was tested.
Ten samples were tested using the improved spectrometric xylenol orange method after 1 hr exposure to acid (0.1 M HCl), buffer to pH 7.0, and filtration of the precipitate. • 12 hour Example 1A sample was used at 803 ppm Gd3+ • After acid precipitation (N=5) • 8.6+/−9.2 ppm Gd3+ range: 15.9 ppm Gd3+ to undetectable
Ten samples were tested using the improved spectrometric xylenol orange method after 1 hr exposure to acid (0.1 M HCl), buffer to pH 7.0, and filtration of the precipitate. • 12 hour Example 1B sample was used at 803 ppm Gd3+ • After acid precipitation (N=5) • 8.6+/−9.2 ppm Gd3+ range: 15.9 ppm Gd3+ to undetectable.

Data set [8] is classed as physicochemical. An excerpt:
Ironically, Gd-DTPA has a more favorable binding constant than does Gd-DOTA at pH 7.4. For less basic ligands like Gd-DTPA-BMA and DOTA-(gly)4, the experimental values are closer to the theoretical thermodynamic stability constant because there is less competition from available protons at pH 7.4.

Data set [9] can be described thus: Free Gd(III) in incompletely synthesized complex solution. The note with it: mean of five reactions. The class given is physicochemical. On the procedure: Then, the content of free DOTA, free gadolinium, and complex was determined, and the final content of excess free DOTA was set. Five reactions were run, using 4.05 g of DOTA, 15 ml water, and 1.78 g of gadolinium oxide. Ten spectroscopic measurements using Xylenol orange were conducted. […] This is the molar amount of xylenol orange added to each reaction product. One can use: Understanding that the denominator is a constant and Abs^573 is the number of free Gd(III) ions that react with the xylenol orange. This is a conservative measure of ppm, given by the ratio of free gadolinium and total gadolinium in the reactant (×10^6). Another possible definition, which would give a higher number (less conservative) is simply comparing free gadolinium to complexed gadolinium, which would mean ppm of free gadolinium for every million complexed gadolinium.

With `CNC[C@H](O)[C@@H](O)[C@H](O)[C@H](O)CO.O=C([O-])CN1CCN(CC(=O)[O-])CCN(CC(=O)O)CCN(CC(=O)[O-])CC1.[Gd+3]` [Example 1, Gd-DOTA], in [1] (before serum, ppm adjusted to pre-diluted level at drug concentration), the “Baseline Free Gd3+” value is reported as 0.77 +/− 0.92 ppm. Moreover, the “In Vial” value in data set [1] (free Gd, no unit printed in this table (ppm in the 1st table)) was 0.77 +/− 0.92. In addition, the “Free Gd+ after serum” value in data set [2] (1% Gd-DOTA by weight in bovine serum, body temperature, rocker 30 minutes, ppm adjusted to pre-diluted level) was 88 +/− 16.8 ppm. Also, the “In Serum” value in data set [2] (free Gd, unit not given) is on record as 2.9 +/− 0.8. For the same compound, the Transmetallation in [3] was 88 +/− 16.8. Besides, the “Gd3+ of starting sample” value in [4] and in data set [5] was 2146 ppm throughout. Also, the “Free Gd” value was 17,467 +/− 9.4 ppm in [6] (synthesis time 4 hrs), 3,448 +/− 8.9 ppm in data set [6] (synthesis time 8 hrs) and 803 +/− 8.1 ppm in data set [6] (synthesis time 12 hrs).
For the compound `O=C([O-])CN1CCN(CC(=O)[O-])CCN(CC(=O)O)CCN(CC(=O)[O-])CC1.[Gd+3]` [Example 2A, Gd-DOTA], the “Gd3+ after acid precipitation, range (upper value, down to undetectable)” value in data set [7] was no more than 15.9 ppm. For the same compound, the “Gd3+ after acid precipitation” value in [7] (N=5) is 8.6+/−9.2 ppm.
As for `CNC[C@H](O)[C@@H](O)[C@H](O)[C@H](O)CO.O=C([O-])CN1CCN(CC(=O)[O-])CCN(CC(=O)O)CCN(CC(=O)[O-])CC1.[Gd+3]` [Gd-DOTA, gadoterate meglumine, reference compound], the “in-bottle measured free gadolinium” value in data set [1] (commercial product stored in bottle) is on record as 10^13 Gd3+ ions in 100 ml of GCA product. Moreover, in data set [8], the “stability lower at pH 7.4” value is 7 orders of magnitude.
Consider Gd-DOTA [Example 4], for which the “Free Gd(III), MEAN” value in [9] is 30,989 +/− 9410 ppm.
